One data set addresses PDE 4. Briefly: Inhibition of phosphodiesterase 4 (SPA assay, enzyme preparation from human PMNLs). It counts as biochemical. The note with it: cytosolic PDE 4 fraction from human PMNLs; 0.5 μM [3H]-cAMP; 100 μM cGMP. The protocol: The PDE 4 activity is determined using enzyme preparations from human […] (PMNLs). Human blood (buffy coats) was anticoagulated with citrate. The platelet-rich plasma in the supernatant is separated from the erythrocytes and leucocytes by centrifuging at 700 […]g for 20 minutes at room temperature (RT). The PMNLs for the PDE 4 determination are isolated by means of a subsequent dextran sedimentation followed by a gradient centrifugation using Ficoll-Paque. After the cells have been washed twice, the erythrocytes which are still present are lysed within 6 minutes by adding 10 ml of hypotonic buffer (155 mM NH4Cl, 10 mM NaHCO3, 0.1 mM EDTA, pH=7.4) at 4° C. The PMNLs, which are still intact, are washed a further two times with PBS and lysed by ultrasonication. The supernatant obtained after centrifuging at 48 000×g at 4° C. for one hour contains the cytosolic PDE 4 fraction and is used for the PDE 4 measurements.
The phosphodiesterase activity is measured using a modified Amersham Pharmacia Biotech method, i.e. an SPA (scintillation proximity assay) assay. The reaction mixtures contain buffer (50 mM tris-HCl (pH 7.4), 5 mM MgCl2, 100 μM cGMP), varying concentrations of the inhibitors, and the corresponding enzyme preparation. The reaction is started by adding the substrate, i.e. 0.5 μM [3H]-cAMP. The final volume is 100 μl. Test substances are prepared as stock solutions in DMSO. The concentration of DMSO in the reaction mixture is 1% v/v. This DMSO concentration has no effect on PDE activity. After the reaction has been started by adding the substrate, the samples are incubated at 37° C. for 30 minutes. The reaction is stopped by adding a defined quantity of SPA beads and the samples are measured in a beta counter after one hour. The nonspecific enzyme activity (i.e. the blank) is determined in the presence of 100 μM rolipram and subtracted from the test values. The incubation mixtures for the PDE 4 assay contain 100 μM cGMP in order to inhibit any contamination of PDE 3 which may be present.

In data set [1] the test system is pulmonary eosinophil infiltration. Briefly: Inhibition of late-phase eosinophilia 48 h after inhalative ovalbumin challenge in actively sensitized Brown Norway rats. Format: in vivo. The note with it: 2 h prior to allergen challenge, BAL 48 h after challenge. The protocol: The inhibition exerted by the substances according to the invention on pulmonary eosinophil infiltration is examined in male Brown Norway rats (200-250 g) which have been actively sensitized against ovalbumin (OVA). The sensitization is effected by subcutaneously injecting a suspension of 10 μg of OVA, together with 20 mg of aluminium hydroxide as adjuvant, in 0.5 ml of physiological sodium chloride solution per animal on days 1, 14 and 21. In addition to this, each of the animals is injected at the same time with 0.25 ml of Bordetalla pertussis vaccine dilution i.p. On the 28th day of the experiment, the animals are placed individually in open 11 Plexiglass boxes which are connected to a head/nose exposure appliance. The animals are exposed to an aerosol consisting of a 1.0% suspension of ovalbumin (Allergen Challenge). The ovalbumin aerosol is generated using a compressed air (0.2 MPa)-driven nebulizer (Bird micro nebulizer, Palm Springs Calif., USA). The exposure time is 1 hour, with normal controls likewise being nebulized for 1 hour with an aerosol consisting of a 0.9% solution of sodium chloride.
48 hours after the allergen challenge, there is a massive immigration of eosinophilic granulocytes into the lungs of the animals. At this time, the animals are anaesthetized with an overdose of ethylurethane (1.5 g/kg of body weight, given i.p.) and a bronchoalveolar lavage (BAL) is carried out using 3×4 ml of Hank's balance solution. The total cell count, and the number of eosinophilic granulocytes, in the pooled BAL liquid are then determined using an automatic haemocytometer (Bayer Diagnostics Technicon H1E). For each animal, the eosinophils (EOS) in the BAL are calculated in 10^6/animal: EOS/μl×BAL recovery (ml)=EOS/animal. Two control groups (nebulization with physiological sodium chloride solution and nebulization with OVA solution) are included in each test.
The percentage inhibition of the eosinophilia in the substance-treated experimental group is calculated using the following formula: {((OVAC−SC)−(OVAD−SC))/(OVAC−SC)}×100%=% inhibition
(SC=control group treated with vehicle and challenged with 0.9% sodium chloride solution; OVAC=control group treated with vehicle and challenged with 1% of ovalbumin suspension; OVAD=experimental group treated with substance and challenged with 1% of ovalbumin suspension)
The test substances are administered 2 hours prior to the allergen challenge intraperitoneally or orally as a suspension in 10% polyethylene glycol 300 and 0.5% 5-hydroxyethyl cellulose or per inhalation as a mixture with lactose. The control groups are treated with the vehicle in accordance with the manner in which the test substance is administered.

Data set [2] concerns pulmonary neutrophil infiltration. The data set is described as follows: Inhibition of lipopolysaccharide (LPS)-induced pulmonary neutrophilia in Lewis rats. The note with it: 2 h prior to LPS provocation, BAL 6 h after provocation. Format: in vivo. How it is done:
The ability of the substances according to the invention to inhibit pulmonary neutrophil infiltration is examined in male Lewis rats (200-350 g). On the day of the experiment, the animals are placed individually in open 1 l Plexiglass boxes which are connected to a head/nose exposure appliance. The animals are exposed to an aerosol consisting of a suspension of lipopolysaccharide (100 μg of LPS/ml of 0.1% hydroxylamine solution) in PBS (LPS provocation). The LPS/hydroxylamine aerosol is generated using a compressed air (0.2 MPa)-driven nebulizer (Bird micro nebulizer, Palm Springs Calif., USA). The exposure time is 40 minutes, with normal controls likewise being nebulized for 40 minutes with an aerosol consisting of a 0.1% solution of hydroxylamine in PBS.
6 hours after the LPS provocation, there is a maximal and massive immigration of neutrophilic granulocytes into the lungs of the animals. At this time, the animals are anaesthetized with an overdose of ethylurethane (1.5 g/kg of body weight, given i.p.) and a bronchoalveolar lavage (BAL) is carried out using 3×4 ml of Hank's balance solution. The total cell count, and the number of neutrophilic granulocytes, in the pooled BAL liquid are then determined using an automatic haemocytometer (Bayer Diagnostics Technicon H1E). In the case of each animal, the neutrophils (NEUTRO) in the BAL are calculated in 10^6/animal: NEUTRO/μl×BAL recovery (ml)=NEUTRO/animal.
Two control groups (nebulization with a 0.1% hydroxylamine solution in PBS and nebulization with 100 μg of LPS/ml of 0.1% hydroxylamine solution in PBS) are included in each test. The percentage inhibition of the neutrophilia in the substance-treated experimental group is calculated using the following formula: {((LPSC−SC)−(LPSD−SC))/(LPSC−SC)}×100%=% inhibition
SC=control group treated with vehicle and challenged with 0.1% hydroxylamine solution; LPSC=control group treated with vehicle and challenged with LPS (100 μg/ml of 0.1% hydroxylamine solution); LPSD=experimental group treated with substance and challenged with LPS (100 μg/ml of 0.1% hydroxylamine solution)
The test substances are administered 2 hours prior to the LPS provocation, as a suspension in 10% polyethylene glycol 300 and 0.5% 5-hydroxyethyl cellulose orally or per inhalation as a mixture with lactose. The control groups are treated with the vehicle in accordance with the mode of administration used for the test substance.

The values below come from patent publication US20060293362A1, “Nitro-substituted hydroxyindoles, their use as inhibitors of phosphodiesterase 4, and processes for preparing them” (priority 2005, published 2006).

`O=C(Nc1c(Cl)cncc1Cl)C(=O)c1cn(Cc2cccc([N+](=O)[O-])c2)c2c(O)cccc12` [Comparative Compound A]: the IC50 (usually the concentration that inhibits the measured activity by half) at PDE 4 is 2 nM. For the same compound, the Inhibition of eosinophilia entry is reported as “no effect” in data set [1] (0.1 mg/kg i.t.), 33% in data set [1] (10 mg/kg i.p.) and 31% in data set [1] (30 mg/kg p.o.). Further, the results for the Inhibition of neutrophilia result in data set [2] (0.1 mg/kg i.t.) and in data set [2] (1 mg/kg p.o.) were “no effect” and 39%, respectively.
On PDE 4, `O=C(Nc1c(Cl)cncc1Cl)C(=O)c1cn(Cc2c(F)cccc2F)c2c(O)cccc12` [Comparative Compound B, N-(3,5-dichloropyridin-4-yl)[1-(2,6-difluorobenzyl)-7-hydroxyindol-3-yl] glyoxylic acid amide] registered an IC50 of 2 nM. The Inhibition of eosinophilia entry in data set [1] (0.01 mg/kg i.t.) was “no effect”; in data set [1] (0.1 mg/kg i.t.), 35%; in data set [1] (10 mg/kg i.p.), 38%; in data set [1] (30 mg/kg p.o.), 30%. Further, the Inhibition of neutrophilia result in data set [2] (0.01 mg/kg i.t.) is on record as “no effect”; in data set [2] (0.1 mg/kg i.t.), 38%; in data set [2] (1 mg/kg p.o.) it was 31%.
On PDE 4, `O=C(Nc1c(Cl)cncc1Cl)C(=O)c1cn(Cc2ccccc2Cl)c2c(O)cccc12` [Comparative Compound C, (N-3,5-dichloropyridin-4-yl)[1-(2-chlorobenzyl)-7-hydroxyindol-3-yl] glyoxylic acid amide] gave an IC50 of 0.6 nM. Moreover, the Inhibition of eosinophilia result in data set [1] (0.01 mg/kg i.t.) was “no effect”; in data set [1] (0.1 mg/kg i.t.), 62%; in data set [1] (10 mg/kg i.p.), 30%; in data set [1] (30 mg/kg p.o.), 32%. The Inhibition of neutrophilia entry in data set [2] (0.01 mg/kg i.t.) was “no effect”; in data set [2] (0.1 mg/kg i.t.) it was 31%; in data set [2] (1 mg/kg p.o.), 34%.
In turn, `O=C(Nc1c(Cl)cncc1Cl)C(=O)c1cn(Cc2ccc(Cl)cc2[N+](=O)[O-])c2c(O)cccc12` [Compound 1, N-(3,5-dichloropyrdin-4-yl)-[1-(4-chloro-2-nitrobenzyl)-7-hydroxyindol-3-yl]glyoxylic acid amide] yielded a half-maximal inhibitory concentration (IC50) on PDE 4 of 0.9 nM. Besides, the values for the Inhibition of eosinophilia in data set [1] (0.001 mg/kg i.t.), in data set [1] (10 mg/kg i.p.) and in data set [1] (30 mg/kg p.o.) were 55%, 57% and 51%, respectively. The Inhibition of neutrophilia in data set [2] (0.001 mg/kg i.t.) turned out to be 51%; in data set [2] (1 mg/kg p.o.) it was 49%.
For `O=C(Nc1c(Cl)cncc1Cl)C(=O)c1cn(Cc2c(F)cccc2[N+](=O)[O-])c2c(O)cccc12` [Compound 2, N-(3,5-dichloropyridine-4-yl)[1-(6-fluoro-2-nitrobenzyl)-7-hydroxyindole-3-yl)glyoxylic acid amide], the melting point (as a rule, the temperature of the solid-liquid transition) was 308 to 310 °C. The same compound displayed an IC50 on PDE 4 of 0.6 nM.
The compound `Cc1ccc(Cn2cc(C(=O)C(=O)Nc3c(Cl)cncc3Cl)c3cccc(O)c32)cc1[N+](=O)[O-]` [Compound 3, N-(3,5-dichloropyridine-4-yl)-[7-hydroxy-1-(4-methyl-3-nitrobenzyl)-indol-3-yl]-glyoxylic acid amide] showed an IC50 at PDE 4 of 8 nM.
Take `Cc1c(Cn2cc(C(=O)C(=O)Nc3c(Cl)cncc3Cl)c3cccc(O)c32)cccc1[N+](=O)[O-]` [Compound 4, N-(3,5-dichloropyridine-4-yl)-[7-hydroxy-1-(2-methyl-3-nitrobenzyl)-indol-3-yl]-glyoxylic acid amide]: the melting point was 229 to 232 °C (dec.). The compound further yielded an IC50 at PDE 4 of 2 nM.
Regarding `Cc1ccc([N+](=O)[O-])c(Cn2cc(C(=O)C(=O)Nc3c(Cl)cncc3Cl)c3cccc(O)c32)c1` [Compound 5, N-(3,5-dichloropyridine-4-yl)-[7-hydroxy-1-(5-methyl-2-nitrobenzyl)-indol-3-yl]-glyoxylic acid amide], the melting point is 297 to 300 °C (dec.). The IC50 against PDE 4 worked out at 38 nM.
For the compound `O=C(Nc1c(Cl)c[n+]([O-])cc1Cl)C(=O)c1cn(Cc2ccc(Cl)cc2[N+](=O)[O-])c2c(O)cccc12` [Compound 6, N-(3,5-dichloro-1-oxo-pyridine-4-yl)-[1-(4-chloro-2-nitrobenzyl)-7-hydroxyindol-3-yl]-glyoxylic acid amide], at PDE 4, the IC50 was determined as 4 nM.
